Assay results reported in publication PMC12521730, “Quantitative dual-isotope preclinical SPECT/CT imaging and biodistribution of the mercury-197m/g theranostic pair with [^197m/gHg]HgCl2 and a [^197m/gHg]Hg-tetrathiol complex as a platform for radiopharmaceutical development” (EJNMMI Radiopharmacy and Chemistry, 2025).

Test: Ex vivo biodistribution (gamma counter)
Type: in vivo, healthy male C57BL/6 mice
Conditions: 2 h post administration
Protocol: For animal injection, the tracer was prepared at high molar activity. Radiolabeling of H4Tetrathiol (10^–2 M in DMSO; 40 μL for imaging, 20 μL for bioD) (or DMSO, for [^197m/gHg]HgCl2 mice) with [^197m/gHg]HgCl2 (imaging: 26.7 MBq total m + g, 62 μL; bioD: 13.04 MBq total m + g, 31 μL) was performed in a mixture of ammonium acetate buffer (1 M; pH 7; 198 μL for imaging or 149 μL for bioD) and 6 M NaOH (72 μL or 38 μL required to achieve a pH of 7.5 after addition of activity, for imaging or BioD labeling, respectively). The reaction was allowed to stand for 1 h at 37 °C and quantitative (> 99%) non-isolated percentage radiochemical yield (%RCY) was confirmed via the iTLC methods mentioned above. Further, 100 µL of the reaction was diluted with 50 µL of PBS Tween-20 (0.01 M sodium phosphate, 0.15 M NaCl, 0.05% Tween-20) for imaging mice, or 50 µL of the reaction was diluted with 100 µL of PBS Tween-20 for BioD mice. The tracers were prepared immediately before injection to avoid radiolysis and minimize the tracer loss to any surfaces due to its lipophilicity. The injected doses of each isomer, ^197mHg and ^197gHg, were quantified by measuring an aliquot of known volume of each tracer preparation via HPGe gamma spectroscopy and decay corrected for time of injection using the Eqs. (1) and (2).
The study was conducted in compliance with the guidelines set by the Canadian Council on Animal Care (CCAC) and approved by the Animal Care Committee (ACC) at the University of British Columbia (A20-0132). A total of eight healthy male C57BL/6 mice weighing approximately 30 g for group 1 and 25 g for group 2 were used in the study. The mice were divided into two experimental groups: group 1 (n = 4) received free [^197m/gHg]HgCl2, while group 2 (n = 4) received [^197m/gHg]Hg-Tetrathiol. Within each group, one mouse was allocated for imaging, while the rest were designated for ex vivo biodistribution analysis. For SPECT imaging, the designated mice were anesthetized using isoflurane via a precision vaporizer. […] Once anesthetized, each imaging mouse received an intravenous (IV) injection via the lateral tail vein of 150 μL of [^197m/gHg]HgCl2 (0.492 MBq ^197mHg + 3.171 MBq ^197gHg) or [^197m/gHg]Hg-Tetrathiol (0.899 MBq ^197mHg + 4.230 MBq ^197gHg) in PBS Tween-20 (0.01 M Na Phosphate, 0.15 M NaCl, 0.05% Tween-20).
Mice received an IV injection of [^197m/gHg]HgCl2 (0.275 MBq ^197mHg + 1.758 MBq ^197gHg, 150 μL) or [^197m/gHg]Hg-Tetrathiol (0.384 MBq ^197mHg + 1.733 MBq ^197gHg, 150 μL) (n = 3 per group) via the lateral tail vein using a Tailveiner restrainer. After the injection, the mice were returned to their experimental cages and allowed unrestricted movement. Biodistribution studies were conducted 2 h after administration. Mice were humanely euthanized with an overdose of isoflurane followed by cardiac puncture to collect blood pool activity. The organs of interest were fully extracted, cleaned of blood without rinsing, weighed, and analysed for radioactivity using a calibrated gamma counter with the 55–93 keV energy window for ^197gHg and the 110–160 keV energy window for ^197mHg (Packard Cobra II, Perkin Elmer, Waltham, MA, USA). The stomach and intestines were carefully cleaned prior to analysis to remove residual contents. For tissues and fluids that could not be fully removed (muscle, blood and bone) activity values were extrapolated based on standardised organ weights for age- and sex-matched mice tables to ensure accurate normalization (Davies and Morris [1993]; Foster et al. [2014]). The stomach and whole intestines were cleaned before analysis. The radioactivity measurements were decay corrected for time of injection using the Eqs. (1) and (2). The results are reported as the percentage of the injected activity per gram of tissue (%IA/g) and percentage of the injected activity per tissue (%IA/organ).

## O=C(CC[S-])OCC(COC(=O)CC[S-])(COC(=O)CC[S-])COC(=O)CC[S-].[Hg+2] [[^197m/gHg]Hg-Tetrathiol]
Hg-197g
  Animal 4 (%IA/g) g: heart: 0.72 %IA/g
  Animal 4 (%IA/g) g: kidneys: 2.58 %IA/g
  Animal 4 (%IA/g) g: large intestine: 0.04 %IA/g
  Animal 4 (%IA/g) g: liver: 460.16 %IA/g
  Animal 4 (%IA/g) g: lungs: 6.68 %IA/g
  Animal 4 (%IA/g) g: muscle: 0.02 %IA/g
  Animal 4 (%IA/g) g: pancreas: 0.05 %IA/g
  Animal 4 (%IA/g) g: small intestine: 0.13 %IA/g
  Animal 4 (%IA/g) g: spleen: 73.76 %IA/g
  Animal 4 (%IA/g) g: stomach: 0.12 %IA/g
  Animal 4 (%IA/g) g: tail: 5.66 %IA/g
  Animal 4 (%IA/g) g: urine: 0.03 %IA/g
  Average (%IA/Organ): bladder: 0.00 %IA/Organ
  Average (%IA/Organ): blood: 0.16 %IA/Organ
  Average (%IA/Organ): bone: 2.70 %IA/Organ
  Average (%IA/Organ): brain: 0.01 %IA/Organ
  Average (%IA/Organ): feces: 0.00 %IA/Organ
  Average (%IA/Organ): heart: 0.09 %IA/Organ
  Average (%IA/Organ): kidneys: 1.13 %IA/Organ
  Average (%IA/Organ): large intestine: 0.02 %IA/Organ
  Average (%IA/Organ): lungs: 0.97 %IA/Organ
  Average (%IA/Organ): muscle: 0.19 %IA/Organ
  Average (%IA/Organ): pancreas: 0.01 %IA/Organ
  Average (%IA/Organ): small intestine: 0.02 %IA/Organ
  Average (%IA/Organ): spleen: 4.17 %IA/Organ
  Average (%IA/Organ): stomach: 0.04 %IA/Organ
  Average (%IA/Organ): tail: 1.05 %IA/Organ
  Average (%IA/Organ): urine: 0.00 %IA/Organ
  Average Hg-197g (%IA/g): bladder: 0.049 %IA/g
  Average Hg-197g (%IA/g): blood: 0.11 %IA/g
  Average Hg-197g (%IA/g): bone: 1.42 %IA/g
  Average Hg-197g (%IA/g): brain: 0.025 %IA/g
  Average Hg-197g (%IA/g): feces: 0.023 %IA/g
  Average Hg-197g (%IA/g): heart: 0.71 %IA/g
  Average Hg-197g (%IA/g): kidneys: 2.96 %IA/g
  Average Hg-197g (%IA/g): large intestine: 0.079 %IA/g
  Average Hg-197g (%IA/g): liver: 202.37 %IA/g
  Average Hg-197g (%IA/g): lungs: 7.10 %IA/g
  Average Hg-197g (%IA/g): muscle: 0.017 %IA/g
  Average Hg-197g (%IA/g): pancreas: 0.058 %IA/g
  Average Hg-197g (%IA/g): small intestine: 0.11 %IA/g
  Average Hg-197g (%IA/g): spleen: 64.43 %IA/g
  Average Hg-197g (%IA/g): stomach: 0.37 %IA/g
  Average Hg-197g (%IA/g): tail: 2.18 %IA/g
  Average Hg-197g (%IA/g): urine: 0.029 %IA/g
Hg-197m
  Animal 1 (%IA/g) m: bladder: 0.05 %IA/g
  Animal 1 (%IA/g) m: blood: 0.10 %IA/g
  Animal 1 (%IA/g) m: bone: 2.09 %IA/g
  Animal 1 (%IA/g) m: brain: 0.04 %IA/g
  Animal 1 (%IA/g) m: feces: 0.04 %IA/g
  Animal 1 (%IA/g) m: heart: 0.47 %IA/g
  Animal 1 (%IA/g) m: kidneys: 5.53 %IA/g
  Animal 1 (%IA/g) m: large intestine: 0.14 %IA/g
  Animal 1 (%IA/g) m: lungs: 9.10 %IA/g
  Animal 1 (%IA/g) m: muscle: 0.01 %IA/g
  Animal 1 (%IA/g) m: pancreas: 0.06 %IA/g
  Animal 1 (%IA/g) m: small intestine: 0.16 %IA/g
  Animal 1 (%IA/g) m: spleen: 74.83 %IA/g
  Animal 1 (%IA/g) m: stomach: 0.19 %IA/g
  Animal 1 (%IA/g) m: tail: 1.72 %IA/g
  Animal 1 (%IA/g) m: urine: 0.03 %IA/g
  Animal 2 (%IA/g) m: bladder: 0.02 %IA/g
  Animal 2 (%IA/g) m: blood: 0.13 %IA/g
  Animal 2 (%IA/g) m: bone: 1.62 %IA/g
  Animal 2 (%IA/g) m: brain: 0.02 %IA/g
  Animal 2 (%IA/g) m: feces: 0.05 %IA/g
  Animal 2 (%IA/g) m: heart: 0.59 %IA/g
  Animal 2 (%IA/g) m: kidneys: 2.35 %IA/g
  Animal 2 (%IA/g) m: large intestine: 0.05 %IA/g
  Animal 2 (%IA/g) m: lungs: 7.04 %IA/g
  Animal 2 (%IA/g) m: muscle: 0.02 %IA/g
  Animal 2 (%IA/g) m: pancreas: 0.04 %IA/g
  Animal 2 (%IA/g) m: small intestine: 0.08 %IA/g
  Animal 2 (%IA/g) m: spleen: 79.95 %IA/g
  Animal 2 (%IA/g) m: stomach: 0.37 %IA/g
  Animal 2 (%IA/g) m: tail: 1.39 %IA/g
  Animal 2 (%IA/g) m: urine: 0.03 %IA/g
  Animal 3 (%IA/g) m: bladder: 0.04 %IA/g
  Animal 3 (%IA/g) m: blood: 0.15 %IA/g
  Animal 3 (%IA/g) m: bone: 1.38 %IA/g
  Animal 3 (%IA/g) m: brain: 0.04 %IA/g
  Animal 3 (%IA/g) m: feces: 0.01 %IA/g
  Animal 3 (%IA/g) m: heart: 0.70 %IA/g
  Animal 3 (%IA/g) m: kidneys: 3.71 %IA/g
  Animal 3 (%IA/g) m: large intestine: 0.12 %IA/g
  Animal 3 (%IA/g) m: lungs: 9.69 %IA/g
  Animal 3 (%IA/g) m: muscle: 0.02 %IA/g
  Animal 3 (%IA/g) m: pancreas: 0.09 %IA/g
  Animal 3 (%IA/g) m: small intestine: 0.10 %IA/g
  Animal 3 (%IA/g) m: spleen: 108.27 %IA/g
  Animal 3 (%IA/g) m: stomach: 1.02 %IA/g
  Animal 3 (%IA/g) m: tail: 0.66 %IA/g
  Animal 3 (%IA/g) m: urine: 0.03 %IA/g
  Animal 4 (%IA/g) m: bladder: 0.07 %IA/g
  Animal 4 (%IA/g) m: blood: 0.12 %IA/g
  Animal 4 (%IA/g) m: bone: 1.62 %IA/g
  Animal 4 (%IA/g) m: brain: 0.02 %IA/g
  Animal 4 (%IA/g) m: feces: 0.01 %IA/g
  Animal 4 (%IA/g) m: heart: 0.64 %IA/g
  Animal 4 (%IA/g) m: kidneys: 3.03 %IA/g
  Animal 4 (%IA/g) m: large intestine: 0.05 %IA/g
  Animal 4 (%IA/g) m: lungs: 7.69 %IA/g
  Animal 4 (%IA/g) m: muscle: 0.02 %IA/g
  Animal 4 (%IA/g) m: pancreas: 0.05 %IA/g
  Animal 4 (%IA/g) m: small intestine: 0.15 %IA/g
  Animal 4 (%IA/g) m: spleen: 101.18 %IA/g
  Animal 4 (%IA/g) m: stomach: 0.12 %IA/g
  Animal 4 (%IA/g) m: tail: 7.32 %IA/g
  Animal 4 (%IA/g) m: urine: 0.04 %IA/g
  Average Hg-197m (%IA/g): bladder: 0.044 %IA/g
  Average Hg-197m (%IA/g): blood: 0.13 %IA/g
  Average Hg-197m (%IA/g): bone: 1.68 %IA/g
  Average Hg-197m (%IA/g): brain: 0.028 %IA/g
  Average Hg-197m (%IA/g): feces: 0.026 %IA/g
  Average Hg-197m (%IA/g): heart: 0.60 %IA/g
  Average Hg-197m (%IA/g): kidneys: 3.65 %IA/g
  Average Hg-197m (%IA/g): large intestine: 0.091 %IA/g
  Average Hg-197m (%IA/g): lungs: 8.38 %IA/g
  Average Hg-197m (%IA/g): muscle: 0.017 %IA/g
  Average Hg-197m (%IA/g): pancreas: 0.056 %IA/g
  Average Hg-197m (%IA/g): small intestine: 0.12 %IA/g
  Average Hg-197m (%IA/g): spleen: 91.06 %IA/g
  Average Hg-197m (%IA/g): stomach: 0.42 %IA/g
  Average Hg-197m (%IA/g): tail: 2.77 %IA/g
  Average Hg-197m (%IA/g): urine: 0.033 %IA/g
